This is an account of results in US8143276B2, “4-thio substituted quinoline and naphthyridine compounds” (XTL Biopharmaceuticals Ltd., priority 2007, dated 2012).

The subject of one series is HCV Replicon. The experiment in a line: HCV Replicon Luciferase Assay. Particulars: Huh-Luc-Neo cells, 48 h incubation, luciferase reporter, read-out: Replicon Inhibition*, Luciferase. The class given is cell-based, Hepatitis C virus. The method, then: The identification of inhibitors of HCV replication and/or proliferation has been facilitated by the development of a cell-based system to study HCV replication. Inhibition of HCV replication may be performed using the HCV Replicon Assay developed in the laboratories of Bartenschlager (Lohman et al, Science 285, 110-113, 1999) and Rice (Blight et al, Science 290, 1972-1974, 2000). The assay is performed using the Huh-Luc-Neo cell line (Lohman et al, Science 285, 110-113, 1999). Huh-Luc-Neo cells are a human hepatoma cell line (Huh-7) stably expressing a bi-cistronic subgenomic replicon containing the HCV IRES in which the structural proteins of HCV have been deleted and replaced by a construct containing sequences coding for the firefly luciferase reporter gene, the neomycin selectable marker and the EMCV IRES to direct expression of a truncated HCV genome expressing the […] NS3, NS4A, NS4B, NS5A, and NS5B. HCV targets through which inhibitors could act to inhibit replication include the NS3 protease, the helicase/ATPase, NS5A, the NS5B-RNA dependent RNA polymerase, and the HCV IRES.
(§1) Expression of HCV IRES driven luciferase reporter activity and HCV RNA is measured to obtain indirect and direct measures of replication of HCV RNA respectively. Inhibitors of HCV replication and/or proliferation are determined by initially identifying molecules that inhibit expression of the HCV IRES driven luciferase reporter in this HCV Replicon Luciferase Assay. Cell viability assays and control cell based luciferase assays are then run on hits identified in the HCV Replicon Luciferase Assay to eliminate cytoxic compounds and non-specific compounds which act by inhibiting the luciferase enzyme.
Day 0, Cell Seeding and Compound Treatment: Huh-Luc-Neo Cells are seeded at 25,000/well in an opaque-walled 96 plate with Growth Medium (DMEM phenol red free+PS+2 mM glutamine; 100 μl/well). The compounds to be tested are added to the experimental wells (10 μl/well at 10× assay concentration) and the cells are then incubated (5% CO2, 37° C.) for 48 h.
Day 2, Reagent Preparation and Luciferase Assay: The Bright-Glo Luciferase Assay Buffer (Promega) is thawed and equilibrated to room temperature prior to use. The lyophilized Bright-Glo Luciferase Assay Substrate is equilibrated to room temperature prior to use. 10 ml of Bright-Glo Luciferase Assay Buffer is transferred to 1 vial of Bright-Glo Luciferase Assay Substrate bottle and mixed by gently with a Vortex. 100 μl of Bright-Glo Luciferase Assay reagent (Bright-Glo Luciferase Assay Buffer+Bright-Glo Luciferase Assay Substrate Mixture) is added to each well. The well contents are mixed for 5 min. on an orbital shaker at room temperature to induce cell lysis and the luminescence is then measured using a luminometer. The data is analyzed and IC50s are determined using GraphPad Prism 4 software. Hits validated in the Replicon Luciferase assay have IC50s<8.0 μM and show <30% inhibition of Cell Viability at a compound concentration of 100 μM (Cell Titer Glow Assay, cell viability assay conditions identical to HCV Replicon Luciferase Assay conditions).

For the next series, the system named is HCV RNA. The experiment in a line: HCV Replicon RNA Assay (Taqman). The class given is cell-based, Hepatitis C virus. The settings on record: Huh-Luc-Neo cells, compound re-added at 24 h, HCV RNA by quantitative PCR, read-out: Replicon Inhibition*, Taqman. The method, then:
as §1
Day 0, Cell Seeding and Compound Treatment: Huh-Luc-Neo Cells are seeded at 25,000/well in an opaque-walled 96 plate with Growth Medium (DMEM phenol red free+PS+2 mM glutamine; 100 μl/well). The compounds to be tested are added to the experimental wells (10 μl/well at 10× assay concentration) and the cells are then incubated (5% CO2, 37° C.).
Day 1, Media Change and Compound Treatment: 24 hours after the initial compound treatment the cell culture media is aspirated from the wells and fresh Growth Medium is added (DMEM phenol red free+PS+2 mM glutamine; 100 μl/well). The compounds to be tested are then added to the appropriate experimental wells (10 μl/well at 10× assay concentration) and the cells are then incubated (5% CO2, 37° C.) for an additional 24 hrs.
Day 2, RNA Isolation and cDNA Synthesis: The cells are washed with 1× Phosphate Buffered Saline (PBS) once.
Day 3, Quantitative PCR Based Measurement of HCV RNA (Taqman Assay): Quantitative PCR analysis to measure HCV RNA expression from cDNA synthesized on Day 2 is performed using the ABI 9700 HT Sequence Detection System (Applied Biosystems) as previously described (Lohman et al, Science 285, 110-113, 1999). The data is analyzed and IC50s are determined using GraphPad Prism 4 software. Hits validated in the Replicon RNA Assay have IC50s<8.0 μM and show <30% inhibition of Cell Viability at a compound concentration of 50 μM (Cell Titer Glow Assay, cell viability assay conditions identical to HCV Replicon RNA Assay conditions).

In the next series the test system is Huh-Luc-Neo Cells. The experiment in a line: CellTiter-Glo Cell Viability Assay. The class given is cell-based, human. The settings on record: 48 h, read-out: Cytotoxicity*. The method, then:
(§2) Day 0, Cell Seeding and Compound Treatment: Huh-Luc-Neo Cells are seeded at 25,000/well in an opaque-walled 96 plate with Growth Medium (DMEM phenol red free+PS+2 mM glutamine; 100 ul/well). The compounds to be tested for inhibition of cell viability are added to the experimental wells (10 μl/well at 10× assay concentration) and the cells are then incubated (5% CO2, 37° C.) for 48 h.
(§3) Day 2, Reagent Preparation and Assay: The CellTiter-Glo Buffer is thawed and equilibrated to room temperature prior to use. The lyophilized CellTiter-Glo Substrate is equilibrated to room temperature prior to use. 10 ml of CellTiter-Glo Buffer is transferred to 1 vial of CellTiter-Glo Substrate and mixed by gently with a Vortex. 100 μl of CellTiter-Glo Assay reagent (CellTiter-Glo Buffer+CellTiter-Glo Substrate Mixture) is added to each well. The well contents are mixed for 5 min. on an orbital shaker at room temperature to induce cell lysis and the luminescence is then measured using a luminometer.

Series [1] can be described thus: CellTiter-Glo Cell Viability Assay. The settings on record: human, Huh-Luc-Neo cells, read-out: Cytotoxicity*. The class given is cell-based, human. The method, then:
as §2, §3
For orientation: Cellular ATP, detected with luciferase, serves as a proxy for viable cell number.

Like-named read-outs stand apart in the source and are kept apart here.

`Cn1c(=O)cc(Sc2ccccc2F)c2ccccc21` [compound 008]: the IC50 in the series on HCV Replicon was 1 to 10 µM; in the series on HCV RNA it was 1 to 10 µM; in the series on Huh-Luc-Neo Cells it was greater than 100 µM.

Take `Cn1c(=O)cc(Sc2ccc(NC(=O)[C@H](Cc3ccc(F)cc3)NC(=O)OC(C)(C)C)cc2)c2ccccc21` [compound 025]: the IC50 in the series on HCV Replicon (Hepatitis C virus) and in the series with HCV RNA (Hepatitis C virus) was 1 to 10 µM in each case. Also, in series [1], the IC50 at 48 h is greater than 100 µM.

Regarding `Cn1c(=O)cc(Sc2ccc(Cl)cc2)c2cc(F)ccc21` [compound 015], the IC50 in the series on HCV Replicon (Hepatitis C virus) and with HCV RNA (Hepatitis C virus) was 1 to 10 µM each time. Also, in series [1], the IC50 at 48 h is greater than 100 µM.

Regarding `CCc1ccc2c(c1)c(Sc1ccc(N)cc1)cc(=O)n2C` [compound 038], the IC50 in the series with HCV Replicon (Hepatitis C virus) and with HCV RNA (Hepatitis C virus) was less than 1 µM each time. The IC50 at 48 h in series [1] was greater than 100 µM.

For the compound `Cc1cc2c(Sc3ccc(N)cc3)cc(=O)n(C)c2cc1C` [compound 035], the IC50 in the series on HCV Replicon (Hepatitis C virus) and in the series on HCV RNA (Hepatitis C virus) was less than 1 µM throughout. The IC50 at 48 h in series [1] was greater than 100 µM.

In the case of `COCCOCC(=O)Nc1ccc(Sc2cc(=O)n(C)c3ccccc23)cc1` [compound 021], the IC50 is less than 1 µM in the series with HCV Replicon (Hepatitis C virus) and 1 to 10 µM in the series with HCV RNA (Hepatitis C virus). For the same compound, in series [1], the IC50 at 48 h was greater than 100 µM.

For the compound `Cn1c(=O)cc(Sc2c(Cl)cccc2Cl)c2ccccc21` [compound 004], the IC50 in the series on HCV Replicon (Hepatitis C virus) was 1 to 10 µM; in the series with HCV RNA (Hepatitis C virus), less than 1 µM. The IC50 at 48 h in series [1] was greater than 100 µM.

In the case of `Cn1c(=O)cc(Sc2ccccc2F)c2ccccc21` [compound 005], the IC50 in the series on HCV Replicon (Hepatitis C virus) lay within 1 to 10 µM; in the series on HCV RNA (Hepatitis C virus), 1 to 10 µM; with Huh-Luc-Neo Cells, 10 to 100 µM.
